Results taken from patent US20190216725A1, “DRUG DELIVERY SYSTEM FOR THE DELIVERY OF INTEGRASE INHIBITORS” (MERCK SHARP & DOHME CORP., priority 2016, published 2019).

Assay: maximum solubility in PBS + solutol
Format: physicochemical
Conditions: aqueous with cosolvent or surfactant or cyclodextrin

Row | Structure (SMILES) | solubility (in PBS+2 wt % solutol) [µg/mL] | solubility (in PBS+5 wt % solutol) [µg/mL]
1 | C[C@]12CCCO[C@H]1Cn1cc(C(=O)NCc3ccc(F)cc3F)c(=O)c(O)c1C2=O [active ingredient 1, (4aS,11aR)-N-(2,4-difluorobenzyl)-6-hydroxy-4a-methyl-5,7-dioxo-2,3,4,4a,5,7,11,11a-octahydropyrano[3,2-b]quinolizine-8-carboxamide] | 150 | 260
2 | CCN1C[C@@H]2C[C@@H](OC)c3c(C(=O)NCc4ccc(F)cc4F)c(=O)c(O)c(n32)C1=O [active ingredient 2, (3aS,5R)-N-(2,4-difluorobenzyl)-2-ethyl-8-hydroxy-5-methoxy-1,7-dioxo-2,3,3a,4,5,7-hexahydro-1H-pyrazino[2,1,6-cd]indolizine-6-carboxamide] | 310 | 
